# Assay results taken from patent publication US20210052480A1, “USE OF CYCLIC PEPTIDES IN COSMETIC” (Sederma, priority 2018, published 2021).
# Key:
# Assay type in all cases: cell-based
# HNFs [1] = assay: Comparative collagen I synthesis by fibroblasts, ELISA; settings: 3 days
# Experimental: HNFs were grown in 24-well plates for 24 hours. The cells were placed in contact or not with test products at different concentrations for 3 days. The collagen synthesis was evaluated by ELISA assay on the culture supernatant and the result was reduced to the number of cells.
# HNFs [2] = assay: Comparative elastin synthesis by fibroblasts, ELISA; settings: 12.5 ppm; 3 days
# FHNs = assay: Comparative collagen I synthesis by fibroblasts, IMF; settings: 6 days
# Experimental: FHNs were grown in 24-well plates for 24 hours. The cells were placed in contact with test products (or their excipient) at different concentrations for 6 days. The collagen I produced by the cells was then quantified by immunofluorescence on the fixed mats, and the result was then reduced to the number of cells.
Substance,"Collagen I production (ELISA method), comparison (HNFs [1]; 10 ppm)","Collagen I production (ELISA method), comparison (HNFs [1]; 15 ppm)","Production of elastin (ELISA method), comparison (HNFs [2])","Production of collagen I (IMF method), comparison (FHNs; 5 ppm)","Production of collagen I (IMF method), comparison (FHNs; 10 ppm)"
cyclo(ILVPPFFLI) [Linusorb B3],−0.4%; nds,+62.6%; p <0.01,+58%; p <0.05,+111.1; p <0.01,+121.7; p <0.01
Cyclo(-Met-Leu-Ile-Pro-Pro-Phe-Phe-Val-Ile) (MLIPPFFVI; cyclic; Synthetic peptide or Linum usitatissimum; (1)..(1) M can be oxidized into sulfoxide or sulfone; (1)..(9) Cyclic peptide) [Linusorb B2],+36.2%; p <0.01,+39.2%; p <0.01,+43%; p <0.05,+34.2; dns,+41.8; p <0.01
